Experimental data reported in patent US20190060296A1, “DISCOVERY OF SMALL MOLECULES THAT TARGET THE ANDROGEN RECEPTOR AND USES” (Massachusetts Institute of Technology, priority 2017, published 2019).

Target: T1, AR-v7 (Homo sapiens, UniProt P10275)
T1 construct: expressed in transfected cells
T1 sequence (P10275 1-644 isoform P10275-3): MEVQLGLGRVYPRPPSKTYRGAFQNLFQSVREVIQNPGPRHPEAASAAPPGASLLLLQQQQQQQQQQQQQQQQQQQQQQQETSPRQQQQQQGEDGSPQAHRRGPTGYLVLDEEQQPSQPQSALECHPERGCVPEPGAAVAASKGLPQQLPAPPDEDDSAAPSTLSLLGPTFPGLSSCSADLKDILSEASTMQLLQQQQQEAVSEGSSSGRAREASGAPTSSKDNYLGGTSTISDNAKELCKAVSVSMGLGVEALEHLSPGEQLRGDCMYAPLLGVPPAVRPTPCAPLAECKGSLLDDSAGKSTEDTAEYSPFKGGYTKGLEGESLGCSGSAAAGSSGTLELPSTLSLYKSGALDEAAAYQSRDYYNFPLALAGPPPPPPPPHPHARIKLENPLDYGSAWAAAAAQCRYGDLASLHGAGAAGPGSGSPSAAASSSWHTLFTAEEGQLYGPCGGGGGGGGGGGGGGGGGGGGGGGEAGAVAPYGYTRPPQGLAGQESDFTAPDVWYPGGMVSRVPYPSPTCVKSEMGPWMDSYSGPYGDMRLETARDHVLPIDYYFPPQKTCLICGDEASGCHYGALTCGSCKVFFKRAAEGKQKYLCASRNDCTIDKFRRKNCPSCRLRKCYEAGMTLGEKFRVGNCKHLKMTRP
Assay: dual luciferase reporter assay, stable LNCaP cell line with AR-v7 under DOX control and MMTV-driven firefly luciferase
Type: cell-based
Details: Reporter Assay at 24 hours; dose response starting at 50 μM, serially diluted 1:1; LNCaP cells
Excerpt: CMV-driven Renilla luciferase is also included as a control. The relative luciferase activity is the firefly luciferase activity normalized to the Renilla luciferase activity. A “dual-reporter assay” is conceptually similar to the single reporter assay described above, and can correct for experimental variation (e.g., cell number, transfection efficiency, etc.). In the case of a dual-reporter assay, a “reporter system” is used, where cells are transfected with two plasmids, the first plasmid comprising the regulatory gene of interest and a first reporter, and the second plasmid comprising a constitutive promoter and a second reporter, wherein the second reporter and the first reporter have biologically distinct activities. The ratio of the first reporter activity (e.g., controlled by the regulatory gene of interest) relative to the second reporter activity (e.g., controlled by the constitutive promoter) corrects for experimental variation. […] In certain embodiments, one or more compounds selected from the SMM screen are submitted to a screen comprising a dual-luciferase assay, the dual-luciferase assay further comprising (i) a first vector comprising a first promoter and a first reporter and (ii) a second vector comprising a second promoter and a second reporter. In certain embodiments, the first vector comprises a first promoter and a first reporter, wherein the first promoter is the MMTV promoter and the first reporter is firefly luciferase. Activation of the androgen receptor, or variant thereof, will promote increased expression of the MMTV-driven firefly luciferase. In certain embodiments, the second vector comprises a second promoter and a second reporter, wherein the second promoter is the cytomegalovirus (CMV) promoter and the second reporter is Renilla luciferase. The CMV promoter is constitutively activated, leading to a basal expression level of Renilla luciferase that serves as a control and can be used to normalize the MMTV-driven firefly luciferase expression level. […] In an embodiment, the first luciferase is firefly luciferase. In an embodiment, the second luciferase is Renilla luciferase. […] In certain embodiments, the firefly luciferase is under control of an MMTV promoter that contains one or more androgen response element (ARE). […] In total, 50,000 molecules were screened against the androgen receptor variant AR-v7 (exons 1-3 truncate of AR-FL) using a small molecule microarray (SMM) (see FIG. 1). […] PSA was used as a readout for both AR-v7 and AR activity in the qPCR assay in LNCaP cells. Selected SMM assay positives were administered to cells at two doses (10 and 30 μM) and PSA expression was evaluated using the Single Shot qPCR kit (BioRad) (see FIG. 2).

SMILES	IC50
CS(=O)(=O)N1CCC(Oc2cccc(C(=O)NCC[C@@H]3C[C@@H]4C=C[C@H]3C4)c2)CC1 (relative stereo) [KI-ARv-08, N-{2-[(1S*,2S*,4S*)-bicyclo[2.2.1]hept-5-en-2-yl]ethyl}-3-{[1-(methylsulfonyl)-4-piperidinyl]oxy}benzamide]	24.7 µM
Cc1c(C(=O)NCc2ccncc2)sc2ncnc(NC[C@H]3C[C@@H]4C=C[C@H]3C4)c12 (relative stereo) [RO3682, 4-{[(1R*,2S*,4R*)-bicyclo[2.2.1]hept-5-en-2-ylmethyl]amino}-5-methyl-N-(4-pyridinylmethyl)thieno[2,3-d]pyrimidine-6-carboxamide]	12.5 µM
Cc1c(C(=O)N(C)Cc2cccc3ncccc23)sc2ncnc(NCC3C[C@@H]4C=C[C@H]3C4)c12 (stereo partly drawn) [KI-ARv-02, 4-((((1R,4R)-bicyclo[2.2.1]hept-5-en-2-yl)methyl)amino)-N,5-dimethyl-N-(quinolin-5-ylmethyl)thieno[2,3-d]pyrimidine-6-carboxamide]	6.86 µM
CCNc1ncc(-c2cc(-c3cc(C)sc3C)nc(N)c2C#N)cn1 [KI-ARv-05, 2-amino-6-(2,5-dimethyl-3-thienyl)-4-[2-(ethylamino)pyrimidin-5-yl]nicotinonitrile]	50 µM

Second part, the compound after the results:

IC50	SMILES
5.43 µM	O=C(NCC[C@@H]1C[C@@H]2C=C[C@H]1C2)c1cccc(OC2CCN(C(=O)C3CC3)CC2)c1 (relative stereo) [KI-ARv-01, N-{2-[(1S*,2S*,4S*)-bicyclo[2.2.1]hept-5-en-2-yl]ethyl}-3-{[1-(cyclopropylcarbonyl)-4-piperidinyl]oxy}benzamide]
11.3 µM	Fc1ccc(N2CCCN(CC3[C@H]4CNC[C@@H]34)CC2)cc1 (relative stereo) [KI-ARv-04, (1R*,5S*,6r)-6-{[4-(4-fluorophenyl)-1,4-diazepan-1-yl]methyl}-3-azabicyclo[3.1.0]hexane]
> 50 µM	COc1ccc(N2CCN(C(=O)c3sc4ncnc(NC[C@H]5C[C@@H]6C=C[C@H]5C6)c4c3C)CC2)cc1 (relative stereo) [KI-ARv-09, N-[(1R*,2S*,4R*)-bicyclo[2.2.1]hept-5-en-2-ylmethyl]-6-{[4-(4-methoxyphenyl)-1-piperazinyl]carbonyl}-5-methylthieno[2,3-d]pyrimidin-4-amine]
14.8 µM	Cc1cc(N2CCC(NCc3cccc(N4CCCC4)c3)CC2)nc(N)n1 [KI-ARv-06, 4-methyl-6-{4-[(3-pyrrolidin-1-ylbenzyl)amino]piperidin-1-yl}pyrimidin-2-amine]
